Results reported in patent US20190071416A1, “COMPOUNDS FOR TREATMENT OF CANCER AND EPIGENETICS” (Agency For Science, Technology and Research, priority 2015, published 2019).

Target: T1, SMYD3 (Homo sapiens, UniProt Q9H7B4)
T1 sequence (Q9H7B4 1-428): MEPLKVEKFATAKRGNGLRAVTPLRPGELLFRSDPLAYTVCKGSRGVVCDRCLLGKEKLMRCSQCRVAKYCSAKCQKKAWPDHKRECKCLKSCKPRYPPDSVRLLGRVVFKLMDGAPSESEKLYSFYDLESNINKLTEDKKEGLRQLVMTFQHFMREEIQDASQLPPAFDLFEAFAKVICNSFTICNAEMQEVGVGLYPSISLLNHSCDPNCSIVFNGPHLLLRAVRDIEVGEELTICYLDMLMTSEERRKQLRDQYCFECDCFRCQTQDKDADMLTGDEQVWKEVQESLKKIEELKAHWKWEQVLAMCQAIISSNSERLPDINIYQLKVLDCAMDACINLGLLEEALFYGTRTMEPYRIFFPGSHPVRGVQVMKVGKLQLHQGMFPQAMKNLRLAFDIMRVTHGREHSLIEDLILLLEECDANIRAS
Assay: SMYD3 biochemical assay (MTase-Glo, MAP3K2 peptide substrate)
Details: Table 3; MTase assay, MAP3K2 peptide substrate; read-out: IC50
Outline: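 Luminescent readout of SAH production (coupled SAH→ATP conversion, MTase-Glo) after SMYD3 reacted 30 min at room temperature with 1.0 µM SAM and 10 µM MAP3K2 peptide, both final. Non-linear regression gave IC50 values.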

IC50	SMILES
84 nM	CCCOC(=O)N1CCN(C(=O)c2ccc3c(Cl)cc(-c4ccc(CN=[N+]=[N-])cc4)nc3c2)CC1 [B264, Propyl 4-(2-(4-(azidomethyl)phenyl)-4-chloroquinoline-7-carbonyl)piperazine-1-carboxylate]
67 nM	CCCOC(=O)N1CCN(C(=O)c2ccc3c(Cl)cc(-c4ccc(C(C)(C)O)cc4)nc3c2)C[C@H]1C [B265, Propyl (R)-4-(4-chloro-2-(4-(2-hydroxypropan-2-yl)phenyl)quinoline-7-carbonyl)-2-methylpiperazine-1-carboxylate]
3300 nM	CC(C)(O)c1ccc(-c2cc(Cl)c3ccc(C(=O)N4CCN(C(=O)OCCF)CC4)cc3n2)cc1 [B266, 2-Fluoroethyl 4-(4-chloro-2-(4-(2-hydroxypropan-2-yl)phenyl)quinoline-7-carbonyl)piperazine-1-carboxylate]
150 nM	C[C@@H]1CN(C(=O)c2ccc3c(Cl)cc(-c4ccc(C(C)(C)O)cc4)nc3c2)CCN1C(=O)OCCF [B267, 2-Fluoroethyl (R)-4-(4-chloro-2-(4-(2-hydroxypropan-2-yl)phenyl)quinoline-7-carbonyl)-2-methylpiperazine-1-carboxylate]
17 nM	CCCOC(=O)N1CCN(C(=O)c2ccc3c(Cl)cc(-c4ccn(C)c4)nc3c2)C[C@H]1C [B268, Propyl (R)-4-(4-chloro-2-(1-methyl-1H-pyrrol-3-yl)quinoline-7-carbonyl)-2-methylpiperazine-1-carboxylate]
170 nM	CCCOC(=O)N1CCN(C(=O)c2ccc3c(Cl)cc(-c4ccc(C(C)(C)O)c(F)c4)nc3c2)C[C@H]1C [B269, Propyl (R)-4-(4-chloro-2-(3-fluoro-4-(2-hydroxypropan-2-yl)phenyl)quinoline-7-carbonyl)-2-methylpiperazine-1-carboxylate]
16 nM	CCCOC(=O)N1CCN(C(=O)c2ccc3c(Cl)cc(-c4ccc(C(C)(C)O)cc4)nc3c2)C[C@@H]1C [B270, Propyl (S)-4-(4-chloro-2-(4-(2-hydroxypropan-2-yl)phenyl)quinoline-7-carbonyl)-2-methylpiperazine-1-carboxylate]
34 nM	CCCOC(=O)N1CCN(C(=O)c2ccc3c(Cl)cc(-c4cnn(C5COC5)c4)nc3c2)CC1 [B271, Propyl 4-(4-chloro-2-(1-(oxetan-3-yl)-1H-pyrazol-4-yl)quinoline-7-carbonyl)piperazine-1-carboxylate]
16 nM	CCCOC(=O)N1CCN(C(=O)c2ccc3c(Cl)cc(-c4cnn(C5COC5)c4)nc3c2)C[C@H]1C [B272, Propyl (R)-4-(4-chloro-2-(1-(oxetan-3-yl)-1H-pyrazol-4-yl)quinoline-7-carbonyl)-2-methylpiperazine-1-carboxylate]
19 nM	CCCOC(=O)N1CCN(C(=O)c2ccc3c(Cl)cc(-c4cnn(C5COC5)c4)nc3c2)C[C@@H]1C [B273, Propyl (S)-4-(4-chloro-2-(1-(oxetan-3-yl)-1H-pyrazol-4-yl)quinoline-7-carbonyl)-2-methylpiperazine-1-carboxylate]
210 nM	CCCOC(=O)N1CCN(C(=O)c2ccc3c(Cl)cc(-c4cnn(CC(F)(F)F)c4)nc3c2)CC1 [B274, Propyl 4-(4-chloro-2-(1-(2,2,2-trifluoroethyl)-1H-pyrazol-4-yl)quinoline-7-carbonyl)piperazine-1-carboxylate]
34 nM	CCCOC(=O)N1CCN(C(=O)c2ccc3c(Cl)cc(-c4cnn(CC(F)(F)F)c4)nc3c2)C[C@H]1C [B275, Propyl (R)-4-(4-chloro-2-(1-(2,2,2-trifluoroethyl)-1H-pyrazol-4-yl)quinoline-7-carbonyl)-2-methylpiperazine-1-carboxylate]
22 nM	CCCOC(=O)N1CCN(C(=O)c2ccc3c(Cl)cc(-c4cnn(CC(F)(F)F)c4)nc3c2)C[C@@H]1C [B276, Propyl (S)-4-(4-chloro-2-(1-(2,2,2-trifluoroethyl)-1H-pyrazol-4-yl)quinoline-7-carbonyl)-2-methylpiperazine-1-carboxylate]
